Data: patent US10959430B2, “Compositions and methods for repelling coleopterans” (ISCA TECHNOLOGIES, INC., priority 2015, dated 2021)

How the values were obtained:
CBB = details: dosage and verbenone type not given in the study; cited from earlier work
[1] = test system: CBB (coffee berry borer, Hypothenemus hampei); assay: Dislodging of CBB from coffee berries in a sealed petri dish; type: in vivo; details: both male and female CBBs
From the text: Our testing involved application of approximately 0.2 g of SPLAT Verb in approximately a 6-inch petri dish. (SPLAT Verb is loaded with 10% verbenone by weight.) This area would correspond to 0.0000045ac of land; therefore, our field application rate would be approximately 44 kg of SPLAT Verb (4,400 g of verbenone) per acre. Coffee berries, commonly used to rear CBB, were placed in the petri dish. The 0.2 g of SPLAT Verb was introduced into the sealed petri dish. We then went on to measure the times when CBB dislodged or exited the berry. The number dislodged is a summation of the total dislodged at that point in time. Our data (as shown in Table 3) verifies that CBB exited their preferred host and, after dislodging, maintained high activity levels without re-entering the berries.

| SMILES | response of CBB to path containing verbenone (CBB) | effect of exposure on male and female CBBs in the coffee berry [1] |
| --- | --- | --- |
| CC1=CC(=O)[C@@H]2C[C@H]1C2(C)C [verbenone] | unattractive | – |
| CC1=CC(=O)[C@H]2C[C@@H]1C2(C)C [(1S)-(−)-Verbenone] | – | dislodge from the coffee berry |
